Measured values as given in patent publication US10201158B2, “Plant disease control composition and method for controlling plant disease by application of same” (MITSUI CHEMICALS AGRO, INC., priority 2014, dated 2019).

Columns and labels:
Botrytis cinerea = settings: in vivo
Sphaerotheca fuliginea = test: Cucumber powdery mildew preventive test; assay type: in vivo; settings: in vivo; for Control value: test concentration or dose not given here
Experimental: In a greenhouse, cucumber (variety: Sagamihanshiro) planted in a plastic pot having a diameter of 5 cm was grown to the 3rd to 5th-leaf stage. Spray was carried out in the same manner as in Test example 1, and 3 days after the spray, a conidia suspension prepared from Sphaerotheca fuliginea were inoculated on the leaf surface. After inoculation, the pots were placed in a thermostatic greenhouse (20 to 25° C.), and controlling effects were examined after 7 days from the inoculation. In the examination, a ratio of lesion area occupied per one leaf of cucumber was determined according to the same index as in Test example 1, and the control value and the theoretical value according to Colby's formula were similarly calculated.
Wettable powder prepared in compliance with Comparative Preparation Example 4 containing the compounds indicated in Table 7-9 were sprayed to the cucumber leaves, a conidiospore suspension prepared from Sphaerotheca fuliginea was inoculated onto the plants, and the controlling effects were examined in a manner similar to Test Example 6.

Row | Compound | Preventive value (Botrytis cinerea) | Preventive value (Sphaerotheca fuliginea) | Control value (Sphaerotheca fuliginea)
1 | Fc1ccc([C@]2(Cn3cncn3)O[C@H]2c2ccccc2Cl)cc1 (racemic) [Epoxiconazole (b-24), Epoxiconazole] | 33 | 40 | –
2 | CCCCNC(=O)n1c(NC(=O)OC)nc2ccccc21 [Benomyl (b-58), Benomyl] | 60 | 50 | –
3 | COC(=O)Nc1nc2ccccc2[nH]1 [Carbendazim (b-59), Carbendazim] | 40 | – | –
4 | CC1=C(C(=O)Nc2ccccc2)SCCO1 [Carboxin (b-41), Carboxin] | 17 | – | 40
5 | Cc1ccc2nc3sc(=O)sc3nc2c1 [Chinomethionat (b-74), Chinomethionat] | 17 | 50 | –
6 | Fc1ccc(C2(Cn3nc[nH]c3=S)OC2c2ccccc2Cl)c(F)c1 (centres unmarked) [Compound of (V) (b-36)] | 40 | 33 | –
7 | OC(c1cccnc1)c1c(-c2ccc(Cl)cc2F)noc1-c1ccc(F)cc1F (centres unmarked) [Compound of (XVIII) (b-92)] | 50 | 40 | –
8 | CON(C(=O)c1cn(C)nc1C(F)F)C(C)Cc1c(Cl)cc(Cl)cc1Cl (centres unmarked) [Compound of formula (III) (b-8)] | 40 | 60 | –
9 | CC(C)c1ccc(Cl)cc1CN(C(=O)c1c(C(F)F)nn(C)c1F)C1CC1 [Compound of formula (IV) (b-9)] | 40 | 60 | –
10 | Cc1nn(C)c(Nc2c(F)cc(Cl)cc2F)c1-c1ccc(F)cc1Cl [Compound of formula (XV)-1 (b-89)] | 40 | 40 | –
11 | CCN(C)/C=N/c1cc(C)c(Oc2nc(Cc3ccc(Cl)cc3)ns2)cc1C [Compound of formula (XVII) (b-91)] | 40 | 40 | –
12 | CC(C1CC1)C(O)(Cn1cncn1)c1ccc(Cl)cc1 (centres unmarked) [Cyproconazole (b-28), Cyproconazole] | 17 | 47 | –
13 | Cc1cc(C2CC2)nc(Nc2ccccc2)n1 [Cyprodinil (b-61), Cyprodinil] | 50 | – | 40
14 | CC1COC(Cn2cncn2)(c2ccc(Oc3ccc(Cl)cc3)cc2Cl)O1 (centres unmarked) [Difenoconazole (b-29), Difenoconazole] | 33 | 40 | –
15 | CC(Cc1ccc(C(C)(C)C)cc1)CN1CCCCC1 (centres unmarked) [Fenpropidin (b-102), Fenpropidin] | 17 | 40 | –
16 | CC(Cc1ccc(C(C)(C)C)cc1)CN1C[C@@H](C)O[C@@H](C)C1 (some centres unmarked) [Fenpropimorph (b-65), Fenpropimorph] | 17 | 33 | –
17 | C=CCSC(=O)n1c(N)c(-c2ccccc2C)c(=O)n1C(C)C [Fenpyrazamine (b-99), Fenpyrazamine] | – | – | 33
18 | O=c1c2cc(F)ccc2nc(-n2cncn2)n1-c1ccc(Cl)cc1Cl [Fluquinconazole (b-30), Fluquinconazole] | 33 | 47 | –
19 | C[Si](Cn1cncn1)(c1ccc(F)cc1)c1ccc(F)cc1 [Flusilazole (b-31), Flusilazole] | 17 | 33 | –
20 | COc1ccccc1N1CCS/C1=C(/C#N)Sc1cc(C(F)(F)F)ccc1F [Flutianil (b-77), Flutianil] | 17 | 67 | –
21 | OC(Cn1cncn1)(c1ccc(F)cc1)c1ccccc1F (centres unmarked) [Flutriafol (b-34), Flutriafol] | 33 | 40 | –
22 | O=C1c2ccccc2C(=O)N1SC(Cl)(Cl)Cl [Folpet (b-70), Folpet] | 73 | 33 | –
23 | C=CCOC(Cn1ccnc1)c1ccc(Cl)cc1Cl (centres unmarked) [Imazalil (b-20), Imazalil] | 17 | 40 | –
24 | CC(C)C1CCC(Cc2ccc(Cl)cc2)C1(O)Cn1cncn1 (centres unmarked) [Ipconazole (b-25), Ipconazole] | 40 | 50 | –

Row | Compound | Preventive value (Botrytis cinerea) | Preventive value (Sphaerotheca fuliginea) | Control value (Sphaerotheca fuliginea)
25 | CC(C)C1C2CCC1c1c(NC(=O)c3cn(C)nc3C(F)F)cccc12 (centres unmarked) [Isopyrazam (b-7), Isopyrazam] | 40 | – | 40
26 | N#Cc1ccccc1NC(=O)c1snc(Cl)c1Cl [Isotianil(b-46)] | – | 33 | –
27 | CC1(C)CCC(Cc2ccc(Cl)cc2)C1(O)Cn1cncn1 (centres unmarked) [Metconazole (b-26), Metconazole] | 40 | 50 | –
28 | COc1cc(C)c(C(=O)c2c(OC)ccc(Br)c2C)c(OC)c1OC [Metrafenone (b-82), Metrafenone] | 0 | 40 | –
29 | CCCCC(C#N)(Cn1cncn1)c1ccc(Cl)cc1 (centres unmarked) [Myclobutanil (b-35), Myclobutanil] | 17 | 33 | –
30 | CCCC(Cn1cncn1)c1ccc(Cl)cc1Cl (centres unmarked) [Penconazole (b-32), Penconazole] | 17 | – | –
31 | CCCC(Cn1cncn1)c1ccc(Cl)cc1Cl (centres unmarked) [Penconazole(b-32)] | – | 47 | –
32 | Cc1nn(C)c(F)c1C(=O)Nc1ccccc1C(C)CC(C)C (centres unmarked) [Penflufen (b-5), Penflufen] | 47 | – | 73
33 | OP(O)O [Phosphorous acid (b-105), Phosphorous acid] | 33 | 33 | –
34 | CCCN(CCOc1c(Cl)cc(Cl)cc1Cl)C(=O)n1ccnc1 [Prochloraz (b-21), Prochloraz] | 17 | – | –
35 | CCCN(CCOc1c(Cl)cc(Cl)cc1Cl)C(=O)n1ccnc1 [Prochloraz(b-21)] | – | 50 | –
36 | CCCC1COC(Cn2cncn2)(c2ccc(Cl)cc2Cl)O1 (centres unmarked) [Propiconazole (b-27), Propiconazole] | 33 | 40 | –
37 | CCCOc1nc2ccc(I)cc2c(=O)n1CCC [Proquinazid (b-100), Proquinazid] | 17 | 40 | –
38 | COC(=O)NCc1cc(/C(C)=N/OCc2cccc(C)n2)ccc1Cl [Pyribencarb (b-98), Pyribencarb] | 40 | – | –
39 | COc1cc(C)c(C(=O)c2c(OC)ncc(Cl)c2C)c(OC)c1OC [Pyriofenone (b-83), Pyriofenone] | 33 | 40 | –
40 | CN1OC(c2ccc(Cl)cc2)CC1(C)c1cccnc1 (centres unmarked) [Pyrisoxazole (b-103), Pyrisoxazole] | – | 33 | –
41 | Fc1ccc(Oc2ccnc3cc(Cl)cc(Cl)c23)cc1 [Quinoxyfen (b-63), Quinoxyfen] | 17 | 60 | –
42 | Cn1cc(C(=O)Nc2ccccc2C2CC2C2CC2)c(C(F)F)n1 (centres unmarked) [Sedaxane (b-6), Sedaxane] | 50 | – | 40
43 | CCCN(CC)CC1COC2(CCC(C(C)(C)C)CC2)O1 (centres unmarked) [Spiroxamine (b-101), Spiroxamine] | 17 | 33 | –
44 | S1SSSSSSS1 [Sulfur (b-96), Sulfur] | 0 | 73 | –
45 | FC(F)C(F)(F)OCC(Cn1cncn1)c1ccc(Cl)cc1Cl (centres unmarked) [Tetraconazole (b-22), Tetraconazole] | 40 | 50 | –
46 | CN(C)C(=S)SSC(=S)N(C)C [Thiuram (b-68), Thiuram] | – | 33 | –
47 | Metiram [Metiram (b-67)] | – | 33 | –
